According to patent US8637537B2, “Serine/threonine kinase inhibitors” (Genentech, Inc., priority 2011, dated 2014):

molecular target: T1, human recombinant GST-PAK1-KD protein (Homo sapiens, UniProt Q13153); test: GST-PAK1-KD (kinase domain) biochemical assay, microfluidic mobility shift; details: not given
T1 construct: residues #249-545 of human PAK1, UniProtKP/Swiss Q13153; His6 (N); made in house; host or cells: Sf9 insect cells, pAcGP67 baculovirus expression vector
T1 sequence (Q13153 249-545): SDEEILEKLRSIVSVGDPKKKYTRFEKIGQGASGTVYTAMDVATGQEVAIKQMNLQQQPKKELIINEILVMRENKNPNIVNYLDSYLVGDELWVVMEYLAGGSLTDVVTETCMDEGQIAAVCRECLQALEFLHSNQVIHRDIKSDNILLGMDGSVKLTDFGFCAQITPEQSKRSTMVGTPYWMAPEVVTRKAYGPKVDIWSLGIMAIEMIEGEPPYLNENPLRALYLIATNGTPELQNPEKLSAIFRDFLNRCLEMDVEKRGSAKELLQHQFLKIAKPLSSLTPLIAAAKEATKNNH

Molecule `COc1n[nH]c2cccc(CN(C)c3nccc(Nc4cc(C5CC5)[nH]n4)n3)c12` [II-30, N^4-(5-cyclopropyl-1H-pyrazol-3-yl)-N^2-((3-methoxy-1H-indazol-4-yl)methyl)-N^2-methylpyrimidine-2,4-diamine] has a Ki of 50 to 250 nM.

same assay, conditions: Table I, PAK1 Ki class; read-out: Ki

First: Clc1c(CNc2nccc(Nc3cc(C4CCCC4)[nH]n3)n2)ccc2[nH]cnc12 [I-107, N^2-((4-chloro-1H-benzo[d]imidazol-5-yl)methyl)-N^4-(5-cyclopentyl-1H-pyrazol-3-yl)pyrimidine-2,4-diamine]
Second: c1cc(CNc2nccc(Nc3cc(C4CCCC4)[nH]n3)n2)c2cc[nH]c2c1 [I-50, N^2-((1H-indol-4-yl)methyl)-N^4-(5-cyclopentyl-1H-pyrazol-3-yl)pyrimidine-2,4-diamine]
The Ki of the first is lower: less than 50 nM for the first, 50 to 250 nM for the second.

First: Cc1cc(Nc2cc(C3CC3)[nH]n2)nc(NCc2ccc3[nH]cnc3c2)n1 [I-10, N^2-((1H-benzo[d]imidazol-5-yl)methyl)-N^4-(5-cyclopropyl-1H-pyrazol-3-yl)-6-methylpyrimidine-2,4-diamine]
Second: Cc1cc(Nc2cc(C3CC3)[nH]n2)nc(N[C@@H](C)c2ccc3[nH]cnc3c2)n1 [I-4, (S)—N^2-(1-(1H-benzo[d]imidazol-5-yl)ethyl)-N^4-(5-cyclopropyl-1H-pyrazol-3-yl)-6-methylpyrimidine-2,4-diamine]
The Ki of the first is lower: less than 50 nM for the first, 50 to 250 nM for the second. The first binds more tightly here.

First: Clc1cnc(NCc2cccc3[nH]ccc23)nc1Nc1cc(C2CC2)[nH]n1 [I-49, N^2-((1H-indol-4-yl)methyl)-5-chloro-N^4-(5-cyclopropyl-1H-pyrazol-3-yl)pyrimidine-2,4-diamine]
Second: Fc1cnc(NCc2cccc3[nH]ccc23)nc1Nc1cc(C2CC2)[nH]n1 [I-120]
The Ki of the first is higher: 250 to 1000 nM for the first, 50 to 250 nM for the second. The second binds more tightly here.

`O=C(c1c[nH]c2cccc(CNc3nccc(Nc4cc(C5CC5)[nH]n4)n3)c12)C(F)(F)F` [I-37, 1-(4-((4-(5-cyclopropyl-1H-pyrazol-3-ylamino)pyrimidin-2-ylamino)methyl)-1H-indol-3-yl)-2,2,2-trifluoroethanone] and `Cc1c[nH]c2cccc(CNc3nccc(Nc4cc(C5CC5)[nH]n4)n3)c12` [I-92, N^4-(5-Cyclopropyl-1H-pyrazol-3-yl)-N^2-((3-methyl-1H-indol-4-yl)methyl)pyrimidine-2,4-diamine] cannot be ordered by Ki: less than 50 nM for the first, less than 50 nM for the second.

First: Fc1cc(CNc2nccc(Nc3cc(C4CC4)[nH]n3)n2)cc2nc[nH]c12 [I-96, N^4-(5-cyclopropyl-1H-pyrazol-3-yl)-N^2-((7-fluoro-1H-benzo[d]imidazol-5-yl)methyl)pyrimidine-2,4-diamine]
Second: Cc1cnc(NCc2ccc3[nH]cnc3c2)nc1Nc1cc(C2CC2)[nH]n1 [I-32, N^2-(1H-Benzoimidazol-5-ylmethyl)-N^4-(5-cyclopropyl-1H-pyrazol-3-yl)-5-methyl-pyrimidine-2,4-diamine]
The Ki of the first is lower: 50 to 250 nM for the first, 250 to 1000 nM for the second.

First: OCCN(Cc1ccc2[nH]cnc2c1)c1nccc(Nc2cc(C3CC3)[nH]n2)n1 [I-63, 2-(((1H-benzo[d]imidazol-5-yl)methyl)(4-(5-cyclopropyl-1H-pyrazol-3-ylamino)pyrimidin-2-yl)amino)ethanol]
Second: CCN(Cc1ccc2[nH]cnc2c1)c1nccc(Nc2cc(C3CC3)[nH]n2)n1 [I-71, N^2-((1H-benzo[d]imidazol-5-yl)methyl)-N^4-(5-cyclopropyl-1H-pyrazol-3-yl)-N^2-ethylpyrimidine-2,4-diamine]
The Ki of the first is higher: 50 to 250 nM for the first, less than 50 nM for the second.

First: Fc1ccccc1[C@H]1C[C@@H]1c1cc(Nc2ccnc(NCc3cccc4[nH]ccc34)n2)n[nH]1 (racemic) [I-118, N^2-((1H-indol-4-yl)methyl)-N^4-(5-(trans-2-(2-fluorophenyl)cyclopropyl)-1H-pyrazol-3-yl)pyrimidine-2,4-diamine]
Second: FC1(F)CC1c1cc(Nc2ccnc(NCc3cccc4[nH]ccc34)n2)n[nH]1 (stereo not shown) [I-82, N2—((1H-indol-4-yl)methyl)-N4-(5-(2,2-difluorocyclopropyl)-1H-pyrazol-3-yl)pyrimidine-2,4-diamine]
The Ki of the first is higher: 250 to 1000 nM for the first, less than 50 nM for the second.

First: C[C@H](Nc1nccc(Nc2cc(C3CC3(F)F)[nH]n2)n1)c1ccc2[nH]ccc2c1 (mixture of isomers) [I-66, N^2—((S)-1-(1H-indol-5-yl)ethyl)-N^4-(5-(2,2-difluorocyclopropyl)-1H-pyrazol-3-yl)pyrimidine-2,4-diamine]
Second: C[C@H](Nc1nccc(Nc2cc([C@H]3C[C@H]3F)[nH]n2)n1)c1ccc2[nH]cnc2c1 [I-68, N^2—((S)-1-(1H-benzo[d]imidazol-5-yl)ethyl)-N^4-(5-((1R,2R)-2-fluorocyclopropyl)-1H-pyrazol-3-yl)pyrimidine-2,4-diamine]
The Ki of the first is higher: 50 to 250 nM for the first, less than 50 nM for the second.

`CC[C@H](Nc1nccc(Nc2cc(C3CC3)[nH]n2)n1)c1ccc2[nH]cnc2c1` [I-6, N^2-[(1S)-1-(1H-benzimidazol-5-yl)propyl]-N^4-(5-cyclopropyl-1H-pyrazol-3-yl)pyrimidine-2,4-diamine] and `C[C@H](Nc1nccc(Nc2cc([C@@H]3C[C@@H]3F)[nH]n2)n1)c1ccc2[nH]cnc2c1` (single isomer, unassigned) [I-67] cannot be ordered by Ki: less than 50 nM for the first, less than 50 nM for the second.

same assay, conditions: Table II, PAK1 Ki class; read-out: Ki

First: CN(Cc1ccc2[nH]cnc2c1Cl)c1nccc(Nc2cc(C3(F)CC3)[nH]n2)n1 [II-55, N^2-((4-chloro-1H-benzo[d]imidazol-5-yl)methyl)-N^4-(5-(1-fluorocyclorpropyl)-1H-pyrazol-3-yl)-N^2-methylpyrimidine-2,4-diamine]
Second: CN(Cc1ccc2[nH]cnc2c1Cl)c1nccc(Nc2cc(OCc3ccccn3)[nH]n2)n1 [II-36]
The Ki of the first is lower: less than 50 nM for the first, 50 to 250 nM for the second.

`CCc1c(CNc2nccc(Nc3cc(C4CC4)[nH]n3)n2)ccc2[nH]cnc12` [II-7, N^4-(5-Cyclopropyl-1H-pyrazol-3-yl)-N^2-[(4-ethyl-1H-benzimidazol-5-yl)methyl]pyrimidine-2,4-diamine] and `C[C@H](Nc1nccc(Nc2cc(C3CC3)[nH]n2)n1)c1cc(F)cc2[nH]cnc12` [II-18, (S)-N^4-(5-cyclopropyl-1H-pyrazol-3-yl)-N^2-(1-(6-fluoro-1H-benzo[d]imidazol-4-yl)ethyl)pyrimidine-2,4-diamine] cannot be ordered by Ki: less than 50 nM for the first, less than 50 nM for the second.

`OCCN(Cc1cccc2[nH]ncc12)c1nccc(Nc2cc(C3CC3)[nH]n2)n1` [II-77, 2-(((1H-indazol-4-yl)methyl)(4-((5-cyclopropyl-1H-pyrazol-3-yl)amino)pyrimidin-2-yl)amino)ethanol] and `CN(C)CCN(Cc1cc(F)cc2[nH]ncc12)c1nccc(Nc2cc(C3CC3)[nH]n2)n1` [II-110, N^4-(5-cyclopropyl-1H-pyrazol-3-yl)-N^2-(2-(dimethylamino)ethyl)-N^2-((6-fluoro-1H-indazol-4-yl)methyl)pyrimidine-2,4-diamine] cannot be ordered by Ki: less than 50 nM for the first, less than 50 nM for the second.

First: CCc1cc(Nc2nc(N(C)Cc3ccc4[nH]cnc4c3Cl)ncc2F)n[nH]1 [II-69, N^2-((4-chloro-1H-benzo[d]imidazol-5-yl)methyl)-N^4-(5-ethyl-1H-pyrazol-3-yl)-5-fluoro-N^2-methylpyrimidine-2,4-diamine]
Second: Cc1cc(Nc2nc(N(C)Cc3ccc4[nH]cnc4c3Cl)ncc2F)n[nH]1 [II-91, N^2-((4-chloro-1H-benzo[d]imidazol-5-yl)methyl)-5-fluoro-N^2-methyl-N^4-(5-methyl-1H-pyrazol-3-yl)pyrimidine-2,4-diamine]
The Ki of the first is higher: 250 to 1000 nM for the first, less than 50 nM for the second.

First: CCc1cc(Nc2ccnc(NCc3cc(F)cc4[nH]ncc34)n2)n[nH]1 [II-107, N^4-(5-ethyl-1H-pyrazol-3-yl)-N^2-((6-fluoro-1H-indazol-4-yl)methyl)pyrimidine-2,4-diamine]
Second: FC(F)(F)c1cc(CNc2nccc(Nc3cc(C4CC4)[nH]n3)n2)c2cn[nH]c2c1 [II-99, N^4-(5-Cyclopropyl-1H-pyrazol-3-yl)-N^2-((6-(trifluoromethyl)-1H-indazol-4-yl)methyl)pyrimidine-2,4-diamine]
The Ki of the first is higher: 50 to 250 nM for the first, less than 50 nM for the second. The second binds more tightly here.

`CN(Cc1c(F)ccc2[nH]ncc12)c1nccc(Nc2cc(C3CC3)[nH]n2)n1` [II-100, N^4-(5-cyclopropyl-1H-pyrazol-3-yl)-N^2-((5-fluoro-1H-indazol-4-yl)methyl)-N^2-methylpyrimidine-2,4-diamine] and `CN(Cc1cc(Cl)cc2[nH]cnc12)c1nccc(Nc2cc(C3CC3)[nH]n2)n1` [II-14, N^2-((6-Chloro-1H-benzo[d]imidazol-4-yl)methyl)-N^4-(5-cyclopropyl-1H-pyrazol-3-yl)-N^2-methylpyrimidine-2,4-diamine] cannot be ordered by Ki: less than 50 nM for the first, less than 50 nM for the second.

`CC(C)N(Cc1cc(F)cc2[nH]ncc12)c1ncc(F)c(Nc2cc(C3CC3)[nH]n2)n1` [II-96, N^4-(5-cyclopropyl-1H-pyrazol-3-yl)-5-fluoro-N^2-((6-fluoro-1H-indazol-4-yl)methyl)-N^2-isopropylpyrimidine-2,4-diamine] and `C[C@H](Nc1nccc(Nc2cc(C3CC3)[nH]n2)n1)c1cc(F)cc2[nH]ncc12` [II-53, (S)-N^4-(5-cyclopropyl-1H-pyrazol-3-yl)-N^2-(1-(6-fluoro-1H-indazol-4-yl)ethyl)pyrimidine-2,4-diamine] cannot be ordered by Ki: less than 50 nM for the first, less than 50 nM for the second.

Compared with `CCN(Cc1ccc2[nH]cnc2c1Cl)c1ncc(F)c(Nc2cc([C@@H]3C[C@@H]3F)[nH]n2)n1` [II-111, N^2-((4-chloro-1H-benzo[d]imidazol-5-yl)methyl)-N^2-ethyl-5-fluoro-N^4-(5-((1S,2S)-2-fluorocyclopropyl)-1H-pyrazol-3-yl)pyrimidine-2,4-diamine], `CN(Cc1ccc2[nH]cnc2c1Cl)c1ncc(F)c(Nc2cc(C(C)(C)C)[nH]n2)n1` [II-42, N^4-(5-tert-Butyl-1H-pyrazol-3-yl)-N^2-((4-chloro-1H-benzo[d]imidazol-5-yl)methyl)-5-fluoro-N^2-methylpyrimidine-2,4-diamine] is higher in Ki: less than 50 nM for the first, 50 to 250 nM for the second. The first binds more tightly here.

First: Cc1cc2[nH]cnc2cc1[C@H](C)Nc1nccc(Nc2cc(C3CC3)[nH]n2)n1 [II-31, (S)-N^4-(5-Cyclopropyl-1H-pyrazol-3-yl)-N^2-(1-(6-methyl-1H-benzo[d]imidazol-5-yl)ethyl)pyrimidine-2,4-diamine]
Second: CC(C)N(Cc1ccc2[nH]cnc2c1)c1nccc(Nc2cc(C3CC3)[nH]n2)n1 [II-26, N^2-((1H-Benzo[d]imidazol-5-yl)methyl)-N^4-(5-cyclopropyl-1H-pyrazol-3-yl)-N^2-isopropylpyrimidine-2,4-diamine]
The Ki of the first is higher: 50 to 250 nM for the first, less than 50 nM for the second.
